These are literature values, as cited in patent US20240066015A1, “TREATMENT OF PAIN ASSOCIATED WITH PARKINSON'S DISEASE” (BIAL-PORTELA & CA., S.A., priority 2021, published 2024).

The conditions of data set [1]: in comparison with placebo, added to levodopa-based therapy.
For data set [2] the following is noted: oral administration, peripheral metabolism by DDC and COMT.
The conditions of data set [3]: hot plate test.
For data set [4] the following is noted: patients with PD and end-of-dose motor fluctuations.
The conditions of data set [5]: transdermal patch, patients with advanced-stage PD; trial not powered for statistical significance.
Setting [6] is: BIPARK-II trial and OPTIPARK study.

The structures appear in SMILES notation.

In the case of `C[C@H](NCc1ccc(OCc2cccc(F)c2)cc1)C(N)=O` [Safinamide], in data set [1], the PDQ-39 pain-related items result was “significantly improve two out of three” and the “need for pain medication” value is “significantly reduce”.
Take `N[C@@H](Cc1ccc(O)c(O)c1)C(=O)O` [levodopa]: the “share of an oral dose that reaches the brain” value in data set [2] is on record as 1%.
As for `CC(=O)C(=Cc1cc(O)c(O)c([N+](=O)[O-])c1)C(C)=O` [nitecapone], the “mediation of the analgesic effect” value in data set [3] is “not mediated through the CNS”.
For the molecule `Cc1c(Cl)c(C)[n+]([O-])c(Cl)c1-c1noc(-c2cc(O)c(O)c([N+](=O)[O-])c2)n1` [opicapone], in data set [4], the OFF-time entry is “efficacious in reducing OFF-time” and the tolerability entry is “generally well tolerated”. Also, the “NMSS "Miscellaneous" domain effect compared with placebo” value (BIPARK-II trial) is “less than for that observed for placebo”. Further, under setting [6], the “NMSS "Miscellaneous" domain (includes pain as one aspect)” value is on record as “positive signal” and the “specific effect on pain” value was “no specific effect on pain was identifiable”.
Consider `CCCN(CCc1cccs1)[C@H]1CCc2c(O)cccc2C1` [rotigotine], for which the PD-associated chronic pain result in data set [5] was “may improve”.
